According to ChEMBL document CHEMBL4616601, “Meeting organometallic chemistry with drug discovery: CH activation enabled discovery of a new ring system of 12H-Indazolo[2,1-a]cinnolin-12-ones with anti-proliferation activity” (Bioorg Med Chem Lett, 2020):
Active and inactive are the calls of the source. No rule for the calls is given here.

Experiments:
[1] = test system: PANC-1; assay: Antiproliferative activity against human PANC1 cells assessed as reduction in cell viability after 72 hrs; assay type: functional, cell-based; conditions: PANC-1, 72 h
[2] = test system: PC-3; assay: Antiproliferative activity against human PC3 cells assessed as reduction in cell viability after 72 hrs by CCK8 assay; assay type: functional, cell-based; conditions: PC-3, 72 h
[3] = test system: PC-3; assay: Antiproliferative activity against human PC3 cells assessed as inhibition of cell viability at 0.5 to 5 uM after 72 hrs by CCK8 assay; assay type: functional, cell-based
[4] = test system: PC-3; assay: Antiproliferative activity against human PC3 cells at 0.5 uM assessed as inhibition of cell viability after 72 hrs by CCK-8 assay relative to control; assay type: functional; conditions: PC-3, 72 h

Compound: CC(C)[C@]12O[C@H]1[C@@H]1O[C@@]13[C@@]1(C)CCC4=C(COC4=O)[C@@H]1C[C@@H]1O[C@@]13C2=O [TRIPTONIDE]
- IC50 [1]: 47 nM
- IC50 [2]: 25 nM

Compound: COC(=O)c1c(C)n2c3ccccc3c(=O)n2c2c(F)cccc12
- Activity [3]: Active
- IC50 [1]: 528 nM
- IC50 [2]: 334 nM

Compound: O=C1CCc2c1c1cc(I)ccc1n1c(=O)c3ccccc3n21
- Activity [3]: Active

Compound: CCOC(=O)c1c(C)n2c3ccccc3c(=O)n2c2ccc(Cl)cc12
- Activity [3]: Active

Compound: CCOC(=O)c1c(-c2ccccc2)n2c3ccccc3c(=O)n2c2ccc(F)cc12
- Activity [3]: Active

Compound: O=C(OCCO)c1c(-c2ccccc2)n2c3ccccc3c(=O)n2c2ccccc12
- Activity [3]: inactive

Compound: CCOC(=O)c1c(-c2ccccc2)n2c3ccccc3c(=O)n2c2ccc(I)cc12
- Activity [3]: Active

Compound: O=C1CCCc2c1c1ccccc1n1c(=O)c3ccccc3n21
- Activity [3]: Active

Compound: COC(=O)c1c(C)n2c3ccccc3c(=O)n2c2cc(OC)c(OC)c(OC)c12
- Activity [3]: Active

Compound: CCc1c(C(=O)OC)c2ccccc2n2c(=O)c3ccccc3n12
- Activity [3]: inactive

Compound: CCOC(=O)c1c(-c2ccccc2)n2c3ccccc3c(=O)n2c2ccc(Cl)cc12
- Activity [3]: Active
- IC50 [1]: > 50000 nM
- IC50 [2]: > 50000 nM

Compound: O=C1CCc2c1c1cc(Br)ccc1n1c(=O)c3ccccc3n21
- Activity [3]: Active

Compound: CCOC(=O)c1c(C)n2c3ccccc3c(=O)n2c2ccc(F)cc12
- Activity [3]: Active

Compound: CCOC(=O)c1c(C)n2c3ccc(OC)cc3c(=O)n2c2ccccc12
- Activity [3]: Active
- IC50 [1]: 506 nM
- IC50 [2]: 475 nM

Compound: CCOC(=O)c1c(C)n2c3ccccc3c(=O)n2c2ccccc12
- Activity [3]: Active

Compound: CCOC(=O)c1c(-c2ccccc2)n2c3ccc(F)cc3c(=O)n2c2ccccc12
- Activity [3]: Active

Compound: COC(=O)c1c(C)n2c3ccccc3c(=O)n2c2ccc(OC(F)(F)F)cc12
- Activity [3]: Active

Compound: COP(=O)(OC)c1c(C)n2c3ccccc3c(=O)n2c2ccccc12
- Activity [3]: inactive

Compound: CCOC(=O)c1c(-c2ccc(F)cc2)n2c3ccccc3c(=O)n2c2ccccc12
- Activity [3]: Active

Compound: COc1ccc2c(c1)c1c(n3c4ccccc4c(=O)n23)CCCC1=O
- Activity [3]: Active

Compound: CCOC(=O)c1c(-c2cccc(OC)c2)n2c3ccccc3c(=O)n2c2ccccc12
- Activity [3]: Active

Compound: CCOC(=O)c1c(-c2ccccc2)n2c3ccccc3c(=O)n2c2ccc3c(c12)OCO3
- Activity [3]: Active
- IC50 [1]: > 50000 nM
- inhibition at 0.5 µM [4]: 39.5%
- IC50 [2]: 5820 nM

Compound: CCOC(=O)c1c(-c2ccccc2)n2c3ccc(OC)cc3c(=O)n2c2ccccc12
- Activity [3]: Active

Compound: O=C1NCCc2c1c1ccccc1n1c(=O)c3ccccc3n21
- Activity [3]: Active

Compound: CCOC(=O)c1c(-c2ccccc2)n2c3ccccc3c(=O)n2c2cc(OC)cc(OC)c12
- Activity [3]: Active

Compound: CCOC(=O)c1c(-c2ccccc2)n2c3ccccc3c(=O)n2c2ccccc12
- Activity [3]: Active

Compound: CCOC(=O)c1c(-c2ccccc2)n2c3ccccc3c(=O)n2c2ccc(N3CCOCC3)cc12
- Activity [3]: Active
- IC50 [1]: 13800 nM
- IC50 [2]: 7490 nM

Compound: O=C1CCc2c1c1cccc(F)c1n1c(=O)c3ccccc3n21
- Activity [3]: Active

Compound: CCOC(=O)c1c(-c2ccc(C)cc2)n2c3ccccc3c(=O)n2c2ccccc12
- Activity [3]: Active

Compound: O=C1CCc2c1c1ccccc1n1c(=O)c3ccccc3n21
- Activity [3]: Active

Compound: CCOC(=O)c1c(C)n2c3ccccc3c(=O)n2c2ccc(I)cc12
- Activity [3]: Active

Compound: CCOC(=O)c1c(C)n2c3ccccc3c(=O)n2c2ccc(Br)cc12
- Activity [3]: Active

Compound: CCOC(=O)c1c(-c2ccco2)n2c3ccccc3c(=O)n2c2ccccc12
- Activity [3]: Active

Compound: CCOC(=O)c1c(-c2ccccc2)n2c3ccccc3c(=O)n2c2ccc(-c3ccccc3)cc12
- Activity [3]: Active

Compound: CCOC(=O)c1c(-c2ccccc2)n2c3ccccc3c(=O)n2c2ccc(Br)cc12
- Activity [3]: Active

Compound: COC(=O)c1c(C2CC2)n2c3ccccc3c(=O)n2c2ccccc12
- Activity [3]: inactive

Compound: O=C1CCc2c1c1cc(Cl)ccc1n1c(=O)c3ccccc3n21
- Activity [3]: Active

Compound: O=C1CCc2c1c1c3c(ccc1n1c(=O)c4ccccc4n21)OCO3
- Activity [3]: Active

Compound: CCOC(=O)c1c(C)n2c3ccccc3c(=O)n2c2ccc(OC)cc12
- Activity [3]: Active

Compound: CCc1ccc2c(c1)c(C(=O)OC)c(C)n1c3ccccc3c(=O)n21
- Activity [3]: Active

Compound: CCOC(=O)c1c(-c2ccccc2)n2c3ccccc3c(=O)n2c2ccc(C)cc12
- Activity [3]: Active

Compound: COc1ccc2c(c1)c1c(n3c4ccccc4c(=O)n23)CCC1=O
- Activity [3]: Active

Compound: COc1cccc2c3c(n4c5ccccc5c(=O)n4c12)CCC3=O
- Activity [3]: Active

Compound: COc1cc2c(c(OC)c1OC)c1c(n3c4ccccc4c(=O)n23)CCC1=O
- Activity [3]: Active

Compound: CCOC(=O)c1c(C)n2c3ccccc3c(=O)n2c2c(OC)cccc12
- Activity [3]: Active
- IC50 [1]: 116 nM
- IC50 [2]: 216 nM

Compound: CCOC(=O)c1c(-c2ccc(OC)cc2)n2c3ccccc3c(=O)n2c2ccccc12
- Activity [3]: Active

Compound: O=C1CCCc2c1c1cc(F)ccc1n1c(=O)c3ccccc3n21
- Activity [3]: Active

Compound: CCOC(=O)c1c(C)n2c3ccccc3c(=O)n2c2ccc(C)cc12
- Activity [3]: Active

Compound: CCOC(=O)c1c(-c2ccccc2)n2c3ccccc3c(=O)n2c2ccc(OC)cc12
- Activity [3]: Active
- IC50 [1]: 4230 nM
- IC50 [2]: 2020 nM

Compound: COc1cc(OC)c2c3c(n4c5ccccc5c(=O)n4c2c1)CCC3=O
- Activity [3]: Active

Compound: Cc1c(C(=O)OCCO)c2ccccc2n2c(=O)c3ccccc3n12
- Activity [3]: inactive

Compound: CCOC(=O)c1c(C)n2c3ccccc3c(=O)n2c2cc(OC)cc(OC)c12
- Activity [3]: Active

Compound: COC(=O)c1c(C)n2c3ccccc3c(=O)n2c2cc3ccccc3cc12
- Activity [3]: Active

Compound: COC(=O)c1c(C)n2c3ccccc3c(=O)n2c2ccccc12
- Activity [3]: Active
- IC50 [1]: 551 nM
- IC50 [2]: 1010 nM

Compound: CCOC(=O)c1c(-c2ccccc2)n2c3ccccc3c(=O)n2c2ccc(C#N)cc12
- Activity [3]: Active

Compound: CCOC(=O)c1c(-c2ccc(I)cc2)n2c3ccccc3c(=O)n2c2ccccc12
- Activity [3]: Active
- IC50 [1]: 6820 nM
- IC50 [2]: 3980 nM
